Data from patent US20240300914A1, “KC2-Type Lipids” (NanoVation Therapeutics Inc., priority 2021, published 2024).
Converted amounts (≈) assume the structure as drawn.

Legend:
[1] = system: FVII; conditions: mice, siRNA formulations; Jayaraman et al. 2012; cited from earlier work
[2] = system: 22Rv1 cells modified to stably express luciferase; test: Luciferase knockdown by siRNA-LNPs in 22Rv1 cells; assay type: cell-based; conditions: Homo sapiens; siRNA-LNP 50/10/38.5/1.5, N/P 3; 22Rv1 luciferase cells; read-out: half maximal effective siRNA concentration (EC50)
Protocol: The LNPs contain 50/10/38.5/1.5 mol % of ionizable lipid/DSPC/chol/PEG-DMG (N/P=3) and the siRNA encodes luciferase.
An siRNA targeted against firefly luciferase purchased from Integrated DNA Technologies (IDT, Coralville, IA) was used to assess ability of LNP to knockdown firefly luciferase in a cell line.
LNP formulations containing the ionizable lipids, nor-KC2 or MC3, DSPC, cholesterol, and PEG-DMG were prepared containing siRNA encoding luciferase. The lipid nanoparticles comprise 50/10/38.5/1.5 mol % of ionizable lipid/DSPC/chol/PEG-DMG and the nitrogen-to-phosphorus ratio (N/P) was 3.

EC50 [2] | SMILES | ED50 for FVII gene silencing [1]
 | CCCCC/C=C\C/C=C\CCCCCCCCC1(CCCCCCCC/C=C\C/C=C\CCCCC)OCC(CCN(C)C)O1 (stereo not drawn) [KC2] | 0.1 mg/kg
0.131 µg/mL (≈ 0.204 µM) | CCCCC/C=C\C/C=C\CCCCCCCCC(CCCCCCCC/C=C\C/C=C\CCCCC)OC(=O)CCCN(C)C [MC3, dilinoleyl-methyl-4-dimethylaminobutyrate] | 
0.137 µg/mL (≈ 0.224 µM) | CCCCC/C=C\C/C=C\CCCCCCCC1(CCCCCCC/C=C\C/C=C\CCCCC)OCC(CCN(C)C)O1 (stereo not drawn) [nor-KC2, 2-(2,2-Di((8Z,11Z)-heptadeca-8,11-dien-1-yl)-1,3-dioxolan-4-yl)-N,N-dimethylethan-1-amine] | 
